# Starred links: 1 amine or outer side, 2 acyl side, 3 side chain; linkers in the order of their positions; H or OH if unused. Non-standard residues stand in square brackets, D forms with d. Residues, ends and D or L forms follow the SMILES beside them. *: point of attachment. dAla(cis-4-NHCOPyz-cHex) = N[C@H](C[C@H]1CC[C@@H](NC(=O)c2cnccn2)CC1)C(=O)O; X2 = O=C(N[C@H]1CC[C@@H](C[C@H](N[*:1])C(=O)[*:2])CC1)c1cnccn1; dPhe(3,4-Cl2) = N[C@H](Cc1ccc(Cl)c(Cl)c1)C(=O)O; dPhe(4-Cl) = N[C@H](Cc1ccc(Cl)cc1)C(=O)O; Pyrimidin2yl(4,6-Me2) = Cc1cc(C)nc(*)n1; d2Nal = N[C@H](Cc1ccc2ccccc2c1)C(=O)O; Lys(iPr) = CC(C)NCCCC[C@H](N)C(=O)O; Orn(iPr) = CC(C)NCCC[C@H](N)C(=O)O; aIle = CC[C@@H](C)[C@H](N)C(=O)O; 3Pal = N[C@@H](Cc1cccnc1)C(=O)O; d3Pal = N[C@H](Cc1cccnc1)C(=O)O; Nicotinoyl = O=C(c1cccnc1)*; Picolinoyl = O=C(c1ccccn1)*; dOrn = NCCC[C@@H](N)C(=O)O; Abu = CC[C@H](N)C(=O)O; Bz = O=C(c1ccccc1)*
# Test system: anaesthesized rats
# Assay: wheal test, intradermal injection
# Format: in vivo, rat
# Design: Wheal (wheal response): unit not given here
# Details: 10 ug peptide intradermally
# Summary of the method: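 Anaesthetized rats given intradermal injection of 10 ug peptide in 100 ul saline; area of the wheal calculated from its diameter.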
row,Structure (SMILES),Wheal Area [mm^2 /10 μg]
1,CC(=O)N[C@H](Cc1ccc2ccccc2c1)C(=O)N[C@H](Cc1ccc(Cl)cc1)C(=O)N[C@H](Cc1cccnc1)C(=O)N[C@@H](CO)C(=O)N[C@@H](CCCCNC(=O)c1ccccn1)C(=O)N[C@H](C[C@H]1CC[C@@H](NC(=O)c2cnccn2)CC1)C(=O)N[C@@H](CC(C)C)C(=O)N[C@@H](CCCNC(C)C)C(=O)N1CCC[C@H]1C(=O)N[C@H](C)C(N)=O [IBR 26181] (Ac-[d2Nal][dPhe(4-Cl)][d3Pal]SK(Picolinoyl)[dAla(cis-4-NHCOPyz-cHex)]L[Orn(iPr)]P[dA]-NH2),101.6 ± 2.2
2,CC(=O)N[C@H](Cc1ccc2ccccc2c1)C(=O)N[C@H](Cc1ccc(Cl)cc1)C(=O)N[C@H](Cc1cccnc1)C(=O)N[C@@H](CO)C(=O)N[C@@H](CCCCNC(=O)c1ccccn1)C(=O)N[C@H](C[C@H]1CC[C@@H](NC(=O)c2cnccn2)CC1)C(=O)N[C@@H](CC(C)C)C(=O)N[C@@H](CCCNC(=N)N)C(=O)N1CCC[C@H]1C(=O)N[C@H](C)C(N)=O [compound 26347] (Ac-[d2Nal][dPhe(4-Cl)][d3Pal]SK(Picolinoyl)[dAla(cis-4-NHCOPyz-cHex)]LRP[dA]-NH2),119.6 ± 8.5
3,CC(=O)N[C@H](Cc1ccc2ccccc2c1)C(=O)N[C@H](Cc1ccc(Cl)cc1)C(=O)N[C@H](Cc1cccnc1)C(=O)N[C@@H](CO)C(=O)N[C@@H](C[C@H]1CC[C@@H](NC(=O)c2cnccn2)CC1)C(=O)N[C@H](CCCCNC(=O)c1ccccn1)C(=O)N[C@@H](CC(C)C)C(=O)N[C@@H](CCCCNC(C)C)C(=O)N1CCC[C@H]1C(=O)N[C@H](C)C(N)=O [compound 26180] (Ac-[d2Nal][dPhe(4-Cl)][d3Pal]S[X2][dK](Picolinoyl)L[Lys(iPr)]P[dA]-NH2),99.5 ± 4.5
4,CC(=O)N[C@H](Cc1ccc2ccccc2c1)C(=O)N[C@H](Cc1ccc(Cl)cc1)C(=O)N[C@H](Cc1cccnc1)C(=O)N[C@@H](CO)C(=O)N[C@@H](CCCCNC(=O)c1ccccn1)C(=O)N[C@H](CCCCNC(=O)c1ccccn1)C(=O)N[C@H](C(=O)N[C@@H](CCCNC(C)C)C(=O)N1CCC[C@H]1C(=O)N[C@H](C)C(N)=O)C(C)C [compound 26118] (Ac-[d2Nal][dPhe(4-Cl)][d3Pal]SK(Picolinoyl)[dK](Picolinoyl)V[Orn(iPr)]P[dA]-NH2),119.6 ± 6.6
5,CC[C@H](NC(=O)[C@@H](CCCCNC(=O)c1ccccn1)NC(=O)[C@H](CCCCNC(=O)c1ccccn1)NC(=O)[C@H](CO)NC(=O)[C@@H](Cc1cccnc1)NC(=O)[C@@H](Cc1ccc(Cl)cc1)NC(=O)[C@@H](Cc1ccc2ccccc2c1)NC(C)=O)C(=O)N[C@@H](CCCNC(C)C)C(=O)N1CCC[C@H]1C(=O)N[C@H](C)C(N)=O [compound 26179] (Ac-[d2Nal][dPhe(4-Cl)][d3Pal]SK(Picolinoyl)[dK](Picolinoyl)[Abu][Orn(iPr)]P[dA]-NH2),101.5 ± 9.3
6,CC[C@@H](C)[C@H](NC(=O)[C@@H](CCCCNC(=O)c1ccccn1)NC(=O)[C@H](CCCCNC(=O)c1ccccn1)NC(=O)[C@H](CO)NC(=O)[C@@H](Cc1cccnc1)NC(=O)[C@@H](Cc1ccc(Cl)cc1)NC(=O)[C@@H](Cc1ccc2ccccc2c1)NC(C)=O)C(=O)N[C@@H](CCCCNC(C)C)C(=O)N1CCC[C@H]1C(=O)N[C@H](C)C(N)=O [compound 25936] (Ac-[d2Nal][dPhe(4-Cl)][d3Pal]SK(Picolinoyl)[dK](Picolinoyl)[aIle][Lys(iPr)]P[dA]-NH2),97.9 ± 2.9
7,CC(=O)N[C@H](Cc1ccc2ccccc2c1)C(=O)N[C@H](Cc1ccc(Cl)cc1)C(=O)N[C@H](Cc1cccnc1)C(=O)N[C@@H](CO)C(=O)N[C@@H](CCCCNC(=O)c1ccccn1)C(=O)N[C@H](C[C@H]1CC[C@@H](NC(=O)c2cnccn2)CC1)C(=O)N[C@H](C(=O)N[C@@H](CCCCNC(C)C)C(=O)N1CCC[C@H]1C(=O)N[C@H](C)C(N)=O)C(C)C [compound 26325] (Ac-[d2Nal][dPhe(4-Cl)][d3Pal]SK(Picolinoyl)[dAla(cis-4-NHCOPyz-cHex)]V[Lys(iPr)]P[dA]-NH2),127.8 ± 4.9
8,CC[C@@H](C)[C@H](NC(=O)[C@@H](CCCCNC(=O)c1ccccn1)NC(=O)[C@H](CCCCNC(=O)c1ccccn1)NC(=O)[C@H](CO)NC(=O)[C@@H](Cc1cccnc1)NC(=O)[C@@H](Cc1ccc(Cl)cc1)NC(=O)[C@@H](Cc1ccc2ccccc2c1)NC(C)=O)C(=O)N[C@@H](CCCNC(C)C)C(=O)N1CCC[C@H]1C(=O)N[C@H](C)C(N)=O [compound 26178] (Ac-[d2Nal][dPhe(4-Cl)][d3Pal]SK(Picolinoyl)[dK](Picolinoyl)[aIle][Orn(iPr)]P[dA]-NH2),78.6 ± 4.5
9,"CC(=O)N[C@H](Cc1ccc(Cl)c(Cl)c1)C(=O)N[C@H](Cc1ccc(Cl)cc1)C(=O)N[C@H](Cc1cccnc1)C(=O)N[C@@H](CO)C(=O)N[C@@H](CCCCNC(=O)c1ccccn1)C(=O)N[C@H](CCCCNC(=O)c1ccccn1)C(=O)N[C@@H](CC(C)C)C(=O)N[C@@H](CCCCNC(C)C)C(=O)N1CCC[C@H]1C(=O)N[C@H](C)C(N)=O [compound 26100] (Ac-[dPhe(3,4-Cl2)][dPhe(4-Cl)][d3Pal]SK(Picolinoyl)[dK](Picolinoyl)L[Lys(iPr)]P[dA]-NH2)",116.2 ± 3.7

# Same assay, conditions: Table I; 10 ug peptide intradermally
row,Structure (SMILES),Wheal [mm^2 /10]
1,CC(=O)N[C@H](Cc1ccc2ccccc2c1)C(=O)N[C@H](Cc1ccc(Cl)cc1)C(=O)N[C@H](Cc1cccnc1)C(=O)N[C@@H](CO)C(=O)N[C@@H](CCCNC(=N)N)C(=O)N[C@H](Cc1cccnc1)C(=O)N[C@@H](CC(C)C)C(=O)N[C@@H](CCCCNC(=O)c1cccnc1)C(=O)N1CCC[C@H]1C(=O)N[C@H](C)C(N)=O [compound 24771] (Ac-[d2Nal][dPhe(4-Cl)][d3Pal]SR[d3Pal]LK(Nicotinoyl)P[dA]-NH2),99.0 ± 10.3
2,CC(=O)N[C@H](Cc1ccc2ccccc2c1)C(=O)N[C@H](Cc1ccc(Cl)cc1)C(=O)N[C@H](Cc1cccnc1)C(=O)N[C@@H](CO)C(=O)N[C@@H](CCCNC(=N)N)C(=O)N[C@H](CCCCNC(=O)c1ccccc1)C(=O)N[C@@H](CC(C)C)C(=O)N[C@@H](CCCCNC(C)C)C(=O)N1CCC[C@H]1C(=O)N[C@H](C)C(N)=O [compound 25385] (Ac-[d2Nal][dPhe(4-Cl)][d3Pal]SR[dK](Bz)L[Lys(iPr)]P[dA]-NH2),169.0
3,CC(=O)N[C@H](Cc1ccc2ccccc2c1)C(=O)N[C@H](Cc1ccc(Cl)cc1)C(=O)N[C@H](Cc1cccnc1)C(=O)N[C@@H](CO)C(=O)N[C@@H](CCCCNC(=O)c1cccnc1)C(=O)N[C@H](Cc1c[nH]cn1)C(=O)N[C@@H](CC(C)C)C(=O)N[C@@H](CCCNC(=N)N)C(=O)N1CCC[C@H]1C(=O)N[C@H](C)C(N)=O [compound 24544] (Ac-[d2Nal][dPhe(4-Cl)][d3Pal]SK(Nicotinoyl)[dH]LRP[dA]-NH2),146.7 ± 3.6
4,CC(=O)N[C@H](Cc1ccc2ccccc2c1)C(=O)N[C@H](Cc1ccc(Cl)cc1)C(=O)N[C@H](Cc1cccnc1)C(=O)N[C@@H](CO)C(=O)N[C@@H](CCCCNC(=O)c1cccnc1)C(=O)N[C@H](CCCCNC(=O)c1ccccn1)C(=O)N[C@@H](CC(C)C)C(=O)N[C@@H](CCCCNC(C)C)C(=O)N1CCC[C@H]1C(=O)N[C@H](C)C(N)=O [compound 25589] (Ac-[d2Nal][dPhe(4-Cl)][d3Pal]SK(Nicotinoyl)[dK](Picolinoyl)L[Lys(iPr)]P[dA]-NH2),120 ± 7
5,CC(=O)N[C@H](Cc1ccc(Cl)cc1)C(=O)N[C@H](Cc1ccc(Cl)cc1)C(=O)N[C@H](Cc1cccnc1)C(=O)N[C@@H](CO)C(=O)N[C@@H](Cc1ccc(O)cc1)C(=O)N[C@H](CCCCNC(=O)c1cccnc1)C(=O)N[C@@H](CC(C)C)C(=O)N[C@@H](CCCCNC(C)C)C(=O)N1CCC[C@H]1C(=O)N[C@H](C)C(N)=O [compound 25337] (Ac-[dPhe(4-Cl)][dPhe(4-Cl)][d3Pal]SY[dK](Nicotinoyl)L[Lys(iPr)]P[dA]-NH2),139.9
6,CC(=O)N[C@H](Cc1ccc2ccccc2c1)C(=O)N[C@H](Cc1ccc(Cl)cc1)C(=O)N[C@H](Cc1cccnc1)C(=O)N[C@@H](CO)C(=O)N[C@@H](Cc1cccnc1)C(=O)N[C@H](CCCCNC(=O)c1cccnc1)C(=O)N[C@@H](CC(C)C)C(=O)N[C@@H](CCCNC(=N)N)C(=O)N1CCC[C@H]1C(=O)N[C@H](C)C(N)=O [compound 24593] (Ac-[d2Nal][dPhe(4-Cl)][d3Pal]S[3Pal][dK](Nicotinoyl)LRP[dA]-NH2),146.4 ± 3.6
7,CC(=O)N[C@H](Cc1ccc2ccccc2c1)C(=O)N[C@H](Cc1ccc(Cl)cc1)C(=O)N[C@H](CCCCNC(=O)c1cccnc1)C(=O)N[C@@H](CO)C(=O)N[C@@H](Cc1ccc(O)cc1)C(=O)N[C@H](CCCCNC(=O)c1cccnc1)C(=O)N[C@@H](CC(C)C)C(=O)N[C@@H](CCCNC(=N)N)C(=O)N1CCC[C@H]1C(=O)N[C@H](C)C(N)=O [compound 24597] (Ac-[d2Nal][dPhe(4-Cl)][dK](Nicotinoyl)SY[dK](Nicotinoyl)LRP[dA]-NH2),101.0
8,"CC(=O)N[C@H](Cc1ccc2ccccc2c1)C(=O)N[C@H](Cc1ccc(Cl)cc1)C(=O)N[C@H](Cc1cccnc1)C(=O)N[C@@H](CO)C(=O)N[C@@H](CCCCNC(=O)c1cccnc1)C(=O)N[C@H](CCCNc1nc(C)cc(C)n1)C(=O)N[C@@H](CC(C)C)C(=O)N[C@@H](CCCCNC(C)C)C(=O)N1CCC[C@H]1C(=O)N[C@H](C)C(N)=O [compound 25334] (Ac-[d2Nal][dPhe(4-Cl)][d3Pal]SK(Nicotinoyl)[dOrn](Pyrimidin2yl(4,6-Me2))L[Lys(iPr)]P[dA]-NH2)",165.2
9,CC(=O)N[C@H](Cc1ccc2ccccc2c1)C(=O)N[C@H](Cc1ccc(Cl)cc1)C(=O)N[C@H](Cc1cccnc1)C(=O)N[C@@H](CO)C(=O)N[C@@H](CCCCNC(=O)c1ccccn1)C(=O)N[C@H](CCCCNC(=O)c1ccccn1)C(=O)N[C@@H](CC(C)C)C(=O)N[C@@H](CCCCNC(C)C)C(=O)N1CCC[C@H]1C(=O)N[C@H](C)C(N)=O [compound 25147] (Ac-[d2Nal][dPhe(4-Cl)][d3Pal]SK(Picolinoyl)[dK](Picolinoyl)L[Lys(iPr)]P[dA]-NH2),123.0

# Same assay, conditions: Table XIV and text, unit not given
row,Structure (SMILES),Wheal (wheal response)
1,CC(=O)N[C@H](Cc1ccc2ccccc2c1)C(=O)N[C@H](Cc1ccc(Cl)cc1)C(=O)N[C@H](Cc1cccnc1)C(=O)N[C@@H](CO)C(=O)N[C@@H](C[C@H]1CC[C@@H](NC(=O)c2cnccn2)CC1)C(=O)N[C@H](CCCCNC(=O)c1ccccn1)C(=O)N[C@@H](CC(C)C)C(=O)N[C@@H](CCCCNC(C)C)C(=O)N1CCC[C@H]1C(=O)N[C@H](C)C(N)=O [compound 26180] (Ac-[d2Nal][dPhe(4-Cl)][d3Pal]S[X2][dK](Picolinoyl)L[Lys(iPr)]P[dA]-NH2),99.5 ± 4.5
2,CC(=O)N[C@H](Cc1ccc2ccccc2c1)C(=O)N[C@H](Cc1ccc(Cl)cc1)C(=O)N[C@H](Cc1cccnc1)C(=O)N[C@@H](CO)C(=O)N[C@@H](CCCCNC(=O)c1ccccn1)C(=O)N[C@H](C[C@H]1CC[C@@H](NC(=O)c2cnccn2)CC1)C(=O)N[C@H](C(=O)N[C@@H](CCCCNC(C)C)C(=O)N1CCC[C@H]1C(=O)N[C@H](C)C(N)=O)C(C)C [compound 26325] (Ac-[d2Nal][dPhe(4-Cl)][d3Pal]SK(Picolinoyl)[dAla(cis-4-NHCOPyz-cHex)]V[Lys(iPr)]P[dA]-NH2),127.8 ± 4.9
